Data as given in patent publication US9604900B2, “Inhibitors of viral replication, their process of preparation and their therapeutical uses” (LABORATOIRE BIODIM, priority 2011, dated 2017).

System: NL4-3 strain of HIV-1
Assay: HIV replication inhibition: CellTiter-Glo cyto-protection assay in MT4 cells infected with NL4-3 virus
Type: cell-based
Details: Human immunodeficiency virus 1, NL43, 120 h, concentration giving 50% cyto-protection, 5 days incubation, CellTiter-Glo viability readout
Experimental: The antiviral activity, particularly against HIV, of compounds according to the invention is evaluated by the protocol described below.
Preparation of Virus stock of the NL4-3 strain of HIV-1 (Adachi et al, J Virol, 1986, 59(2):284-91).
The virus was prepared as described in Lopez et al (Lopez et al, Proc Natl Acad Sci USA., 2006, 103(40):14947-52, by transfecting 2×10^6 293 T cells (CRL-1573, ATCC) with following modifications: 6 μg of NL4-3 proviral DNA molecular clone were mixed with Fugene 6 transfection reagent from Roche, and used according to manufacturer's instructions. Forty eight hours later, transfected cell supernatants were harvested, filtered through 0.45-μm-pore-size filters, quantified for HIV-1 p24 antigen by using a Innotest HIV antigen mAb assay (Ingen) according to manufacturer's instructions, and used in infection experiments.
Serial dilutions of compounds to be tested were prepared in complete RPMI medium from 10 mM DMSO stock solutions, and distributed in a volume of 20 μl in 96 well Falcon 353072 Microtest™ tissue culture plate, in order to get 0.5% DMSO final concentration in each well, after the addition of infected cells. Control wells contained also 0.5% DMSO final concentration but no compound.
MT4 cells (from the NIH AIDS Research and Reference Reagent Program) in RPMI complete medium were counted (10×10^6 cells per well in Falcon 353047 Multiwell™ 24 well) and infected for 2 hours at 37°, at a multiplicity of infection (moi) of 0.0001-0.00001. Cells were then centrifuged 3 min at 3000 rpm, and washed two times in 1 ml PBS to remove viruses that have not entered in cells. Infected cells were resuspended in complete RPMI at 1.25×10^6 cells/ml, and 80 μl of infected cells were distributed in each well containing compounds to be tested or control wells. The plates were then incubated at 37° for 5 days.
Assay used to measure the inhibition of HIV replication by the compounds (according to Gregg S. Jones et al., Antimicrobial Agents and Chemotherapy, 2009, 53 (3): 1194-1203).
After 5 days of incubation, 50 μl of CellTiter-Glo reagent (Promega Biosciences, Inc., Madison Wis., USA) were added to each well. Cell lysis was carried out at room temperature during 10 min, 150 μl of lysates were transferred in Packard Optiplate 96 well, and luminescence was read on a Fluoroskan (Thermo Scientific).

| SMILES | EC50 [µM] |
| --- | --- |
| CC(C)(C)OC(C(=O)O)c1c(-c2ccc3c(c2)CCCO3)cccc1C(F)(F)F (stereo not shown) [Example 33, 2-(tert-butoxy)-2-[2-(3,4-dihydro-2H-1-benzopyran-6-yl)-6-(trifluoromethyl)phenyl]acetic acid] | 25 |
| CC(C)(C)OC(C(=O)O)c1c(C(F)(F)F)ccc(OCc2ccccc2)c1-c1ccc2c(c1)CCCO2 (stereo not shown) [Example 35, 2-[3-(benzyloxy)-2-(3,4-dihydro-2H-1-benzopyran-6-yl)-6-(trifluoromethyl)phenyl]-2-(tert-butoxy)acetic acid] | 3.2 |
| CC(C)(C)OC(C(=O)O)c1cccc(C(F)(F)F)c1-c1ccc2c(c1)CCCO2 (stereo not shown) [Example 21, 2-(tert-butoxy)-2-[2-(3,4-dihydro-2H-1-benzopyran-6-yl)-3-trifluoromethylphenyl]acetic acid] | 9.7 |
| Cc1cccc(-c2ccc3c(c2)CCCO3)c1C(OC(C)(C)C)C(=O)O (stereo not shown) [Example 22, 2-(tert-butoxy)-2-[2-(3,4-dihydro-2H-1-benzopyran-6-yl)-6-methylphenyl]acetic acid] | 26 |
| Cc1cccc(C(OC(C)(C)C)C(=O)O)c1-c1ccc2c(c1)CCCO2 (stereo not shown) [Example 11, 2-(tert-butoxy)-2-[2-(3,4-dihydro-2H-1-benzopyran-6-yl)-3-methylphenyl] acetic acid] | 48 |
| CC(C)(C)OC(C(=O)O)c1c(-c2ccc3c(c2)CCCO3)ccc2ncccc12 (stereo not shown) [Example 20, 2-(tert-butoxy)-2-[6-(3,4-dihydro-2H-1-benzopyran-6-yl)quinolin-5-yl]acetic acid] | 3.8 |
| CC(C)(C)OC(C(=O)O)c1ccc(-c2cccc(-c3cccnc3)c2)cc1-c1ccc2c(c1)CCCO2 (stereo not shown) [Example 30, methyl 2-(tert-butoxy)-2-[2-(3,4-dihydro-2H-1-benzopyran-6-yl)-4-[3-(pyridin-3-yl)phenyl]phenyl]acetic acid] | 4.2 |
| CC(C)(C)OC(C(=O)O)c1c(C(F)(F)F)ccc(F)c1-c1ccc2c(c1)CCCO2 (stereo not shown) [Example 34, 2-(tert-butoxy)-2-[2-(3,4-dihydro-2H-1-benzopyran-6-yl)-3-fluoro-6-(trifluoromethyl)phenyl]acetic acid] | 14 |
| Cc1ccc(C)c(C(OC(C)(C)C)C(=O)O)c1-c1ccc2c(c1)CCCO2 (stereo not shown) [Example 27, 2-(tert-butoxy)-2-[2-(3,4-dihydro-2H-1-benzopyran-6-yl)-3,6-dimethylphenyl]acetic acid] | 1.6 |
| CC1(C)CC=C(c2cccc(C(F)(F)F)c2C(OC(C)(C)C)C(=O)O)CC1 (stereo not shown) [Example 36, 2-(tert-butoxy)-2-[2-(4,4-dimethylcyclohex-1-en-1-yl)-6-(trifluoromethyl)phenyl]acetic acid] | 4.5 |
